In publication PMC7044433, “Combining DNMT and HDAC6 inhibitors increases anti-tumor immune signaling and decreases tumor burden in ovarian cancer” (Scientific Reports, 2020):

Key:
[1] = test system: ARID1A mutated ovarian clear cell carcinoma; conditions: mice with ARID1A mutated ovarian clear cell carcinoma; cited from earlier work
A2780 = assay: qRT-PCR of interferon stimulated genes and cytokines; assay type: cell-based, human; conditions: A2780, Day 7, 500 nM Aza then NextA, fold change relative to Mock
Method: (§1) Cells were cultured in T75 dishes to form a monolayer at 80% confluency. Combination cells were treated with 500 nM 5-azacytidine or PBS for 3 days. Cells were passaged on the fourth day and split into 2 flasks to be treated with Nexturastat or vehicle at the desired dose based on the cell line for the following 3 days. On the last day of HDACi treatment, one flask from each treatment group was stimulated with 250 ng/mL IFNγ (Peprotech, 300-02) for 4 hours. For isogeneic ID8 murine cell lines, cell were stimulated with 250 ng/mL […] (Peprotech, 315-05) for 4 hours. On the seventh day cell pellets were collected for qPCR analysis.
(§2) Total RNA was extracted using the TRIzol method (Life Technologies). RNA concentration was determined using the Thermo Scientific NanoDrop One machine and software (Thermo Scientific, 840274100PR2). One microgram total RNA was DNAse I (Thermo Scientific) treated and used to generate cDNA with the Applied Biosystems High-Capacity cDNA Reverse Transcriptase Kit (Applied Biosystems, 4368814). All RT-qPCRs were run on the Applied Biosystems Quantstudio3 Real-Time PCR System, 96-well plate reader (Applied Biosystems, A28137) and using TaqMan assay Gene Expression Array (Thermo Fisher Scientific, 4331182) in human for OASL, IFI44L, IFNb1, CXCL10, CCL2, CCL5, IFI27, CD247, DNMT1, DNMT3a, DNMT3b and in mouse (Thermo Fisher Scientific, 4331182) for OASL, IFI44L, IFNb1, CXCL10, CCL2, CCL5, IFI27, and CD247. TBP was used as a housekeeping gene for both human and murine cell lines. The ΔΔCt method was used to calculate relative expression levels. Reverse transcriptase negative cDNA synthesis reaction was performed on at least one sample per 96-well plate along with a water control to ensure accurate results.

Hey = assay: as above; assay type: cell-based, human; conditions: Day 7, 500 nM Aza then NextA, fold change relative to Mock
Method: as §1, §2

Kuramochi = assay: as above; assay type: cell-based, human; conditions: Day 7, seven genes
Method: as §1, §2

SKOV3 CR [2] = assay: as above; assay type: cell-based, human; conditions: Day 7
Method: as §1, §2

TykNu = assay: as above; assay type: cell-based, human; conditions: Day 7, seven genes
Method: as §1, §2

MOSE ID8 Trp53−/− = assay: as above; assay type: cell-based, mouse; conditions: Day 7, 500 nM Aza then NextA, fold change relative to Mock
Method: as §1
Total RNA was extracted using the TRIzol method (Life Technologies). RNA concentration was determined using the Thermo Scientific NanoDrop One machine and software (Thermo Scientific, 840274100PR2). […] All RT-qPCRs were run on the Applied Biosystems Quantstudio3 Real-Time PCR System, 96-well plate reader (Applied Biosystems, A28137) and using TaqMan assay Gene Expression Array (Thermo Fisher Scientific, 4331182) in human for OASL, IFI44L, IFNb1, CXCL10, CCL2, CCL5, IFI27, CD247, DNMT1, DNMT3a, DNMT3b and in mouse (Thermo Fisher Scientific, 4331182) for OASL, IFI44L, IFNb1, CXCL10, CCL2, CCL5, IFI27, and CD247. […]

DNMT1 protein = assay: DNMT1 immunoblot in ovarian cancer cell lines; assay type: cell-based, human; conditions: Day 7
Method: (§3) Cells were cultured in T75 dishes (Greiner, 658170) to form a monolayer at 80% confluency. Combination cells were treated with 500 nM 5-azacytidine (Sigma-Aldrich) once a day for 3 days or PBS once a day for 3 days. Cells were passaged on the fourth day and split into 2 flasks to be treated with Nexturastat (StarWise, LLC) or DMSO for vehicle control at the desired dose based on the cell line for the following 3 days. On the first day of Nexturastat treatment, one flask from each treatment group was stimulated with 250 ng/mL IFNγ (Peprotech, 300-02). For isogeneic ID8 murine cell lines, on the first day of HDACi treatment cell were treated with 250 ng/mL IFNγ (Peprotech, 315-05). On the seventh day, cell pellets were collected for Western Blot or flow cytometry analysis. For cycloheximide experiments, cells were treated on the seventh day of the experiment for 0, 4 or 8 hours with 10 μM cycloheximide (Sigma, C4859).
(§4) Isolated cell pellets were lysed in RIPA buffer (Pierce, 89900) with 1X protease and phosphatase inhibitor (Pierce, A32961). […] Protein concentration was determined using a Pierce BCA Protein Assay Kit (Thermo Fisher Scientific, 23225) according to the manufacturer’s protocol. […] Bands were detected using Azure Biosystems (Dublin, California, USA) Imaging System c600. […]

[3] = test system: tumor microenvironment immune cells; assay: Immunophenotyping of ascites in ID8 Trp53−/− mouse model; assay type: in vivo; conditions: first experiment, Week 7
Method: Ascites and murine spleens were collected from 5 to 10 mice per group and incubated in ACK buffer (Thermo Fisher Scientific) to lyse red blood cells for 10 min and then washed. Ascites from each mouse were individually prepared for flow cytometry. The single cells collected were cultured for 4 hours in RPMI with 10% FBS and in the presence of 2 ul/ml Cell Stimulation Cocktail plus protein transport inhibitors (eBioscience, 00497503). Cells were then washed and stained for the T cell panel including: Live/Dead (Thermo Fisher Scientific, L34965), CD45 (Biolegend, 103132), CD3 (Biolegend, 152316), CD4 (Biolegend, 100453), CD8 (Biolegend, 100766), NK1.1 (Biolegend, 108753) CD 279 (Biolegend, 135205). After incubation, the cells were permeabilized (FoxP3 staining buffers; BD Bioscience, 563486). Intracellular staining was performed for FoxP3 (Biolegend, 505806) and IFN-γ (BD Bioscience, 563486).
(§5) All cells were fixed after staining using Foxp3/Transcription Factor Staining Buffer Set (eBioscience, 00-5523-00) and run on a 3-laser, 12-color BD Celesta analyzer.

[4] = test system: ID8 Trp53−/− ovarian cancer; assay: ID8 Trp53−/− mouse model of ovarian cancer, survival and tumor burden; conditions: first experiment; for survival: i.p. Aza 0.5 mg/kg, NextA 25 mg/kg, 5 days a week, combination on alternating weeks, vs Mock
Method: For in vivo tumor studies, all mice were given intraperitoneal injections with 5.0 ×10^6 p53−/− isogeneic murine ovarian cancer cells suspended in 500 uL 1x phosphate buffered saline (PBS) (Corning 21-040-CV). Treatment began 1 week after tumor inoculation and ended when the tumor burden was deemed excessive for the animal. Mice were injected with 5-azacytidine and Nexturastat 5 days a week in alternating treatment (see treatment schemas in Figs. 5 and 6). All mice were given intraperitoneal injections of epigenetic drugs or their appropriate controls. Mice in the 5-azacytidine group were given 0.5 mg/kg of 5-azacytidine dissolved in 100 ul of PBS solution daily. Mice in the NexturastatA group were given 25 mg/kg of Nexturastat A dissolved in 100 ul PEG vehicle solution(70% Polyethylene glycol, 10% Tween80, 20% absolute ethanol) daily. Mice in the NextA+Aza group were given 5-azacytidine and NexturastatA on an alternating weekly basis. Mice in the control group were given a drug vehicle comprised of 70% Polyethylene glycol (Sigma 764752), 10% Tween 80 (Sigma P5188), and 20% 200 proof absolute ethanol as per the manufacturer guidelines as a vehicle control for Nexturastat or PBS as a vehicle control for 5-azacytidine.
Tumor burden was assessed via measurement of body weight, amount of ascites drained from the mice at the point where they had gained 20 to 30% of their body weight, or abdominal circumference measurements.

HDAC activity = assay: HDAC-Glo assay, percent inhibition of HDAC activity in ovarian cancer cell lines; assay type: cell-based, human
Method: HDACi enzymatic function was measured using HDACglo class I/IIa Assay (Promega, G6420). Cells were seeded in a 96-well dish and treated with 500 nM 5-azacytidine and varying levels of HDACi to determine appropriate HDACi dosage. Assay measurements were collected using SpectraMax i3x multi-mode microplate reader (Molecular Devices, USA) at the recommended wavelength. […], Givinostat, and Panobinostat (SelleckChem) were used to compare enzymatic inhibition levels of Nexturastat in each cell line. Results were analyzed according to manufacturer recommendations.

[5] = test system: ovarian cancer cell lines; assay: CellTox Green cytotoxicity assay; assay type: cell-based, human; conditions: NextA dose chosen for each cell line, 5–10 uM
Method: Drug toxicity levels were measured using the CellTox Assay (Promega, G8741). Cells were seeded into a 96-well dish and treated with 500 nm 5-azacytidine and varying levels of HDACi to determine suitable dosage. Cells were treated with fluorescent dye and incubated for 4 days measuring cell death according to the manufacturer’s protocol. For longer treatments, cells were seeded in a 96-well place and treated with 500 nm 5-azacytidine for 4 days and then varying levels of HDACi. Cells were treated with a fluorescent dye on the fourth day and incubated to measure cell death. Assay measurements were collected using SpectraMax i3x multi-mode microplate reader (Molecular Devices, USA) at the recommended wavelength. For our analysis, TritonX (Sigma, 9002-93-1) was used as the positive control compound to simulate cell death on all […] read days. Results were analyzed according to manufacture recommendations.

[6] = test system: MHC class I, Hey human ovarian cancer cell line; assay: MHC class I cell surface expression by flow cytometry; assay type: cell-based; conditions: Day 7, flow cytometry MFI
Method: as §3
(§6) Human ovarian cancer cells from day 7 of the protein protocol were stained for CD274 (eBioscience,12-5983-42) and MHC-I (eBioscience, 12-9983-42).
as §5

[7] = test system: MHC class I, ID8 Trp53−/− mouse ovarian cancer cell line; assay: as above; assay type: cell-based; conditions: Day 7, flow cytometry MFI
Method: as §3
Murine ovarian cancer cell lines from day 7 of the protein protocol were stained for PD-L1/CD274 (BD Bioscience, 558091), PD-L2/CD273 (Biolegend, 107214), MHC-I (Invitrogen, 17-5958-82), and MHC-II (Invitrogen 56-5321-82).
as §5

[8] = test system: MHC I, IGROV-1 CR and SKOV3 CR; assay: MHC I surface expression in cisplatin-resistant cell lines; assay type: cell-based, human; conditions: flow cytometry
Method: as §3, §6, §5

PD-L1 = PD-L1 whole-cell protein immunoblot; assay type: cell-based, human; conditions: IGROV-1 CR and SKOV3 CR
Method: as §3, §4

IGROV-1 CR = test system: IGROV-1 CR; design: method as in PMID 29662190; conditions: read-out: cisplatin IC50; cited from earlier work
SKOV3 CR [9] = test system: SKOV3 CR; design: method as in PMID 29662190; conditions: read-out: cisplatin IC50; cited from earlier work
[10] = low doses (250–500 nM), positive controls

O=C(CCCCCCNC(=O)c1cnc(N(c2ccccc2)c2ccccc2)nc1)NO [ACY1215]
survival [1]: improved survival

Nc1ncn([C@@H]2O[C@H](CO)[C@@H](O)[C@H]2O)c(=O)n1 [Aza, 5-azacytidine]
expression of cytokines and interferon genes (A2780): significantly increased
expression of cytokines and interferon genes (Hey): significantly increased
expression of cytokines and interferon genes (Kuramochi): some upregulation
expression of cytokines and interferon genes (SKOV3 CR [2]): upregulated CCL2 and OASL genes
expression of cytokines and interferon genes (TykNu): significant increases
expression of cytokines and interferon genes (MOSE ID8 Trp53−/−): significantly increased
DNMT1 protein expression (DNMT1 protein): degrades the DNMT1 protein
M1 macrophages in ascites [3]: increase in M1 macrophages
ascites volume (tumor burden) ([4]; Week 7): decreased ascites volume
survival [4]: significantly increased survival

CCN(CC)Cc1ccc2cc(COC(=O)Nc3ccc(C(=O)NO)cc3)ccc2c1 [Givinostat]
inhibition of HDAC activity (HDAC activity; [10]): 100%

Cc1[nH]c2ccccc2c1CCNCc1ccc(/C=C/C(=O)NO)cc1 [LBH]
inhibition of HDAC activity (HDAC activity; [10]): 100%

CCCCN(Cc1ccc(C(=O)NO)cc1)C(=O)Nc1ccccc1 [NextA, Nexturastat A]
inhibition of HDAC activity (HDAC activity; 5 and 10 uM): 60–80%
cell death [5]: no more than 20%
expression of cytokines and interferon genes (A2780): significantly increased
expression of cytokines and interferon genes (Hey): significantly increased
expression of cytokines and interferon genes (Kuramochi): some upregulation
expression of cytokines and interferon genes (SKOV3 CR [2]): upregulated CCL2 and OASL genes
expression of cytokines and interferon genes (MOSE ID8 Trp53−/−): significantly increased
MHC class I cell surface expression [6]: upregulated
MHC class I cell surface expression [7]: upregulated
MHC I expression [8]: increase in MHC I expression
total PD-L1 protein (PD-L1): decrease of total PD-L1 protein
activated NK cells in ascites [3]: favoring the presence of activated NK cells
survival [4]: did not

CC(/C=C/C(=O)NO)=C\[C@@H](C)C(=O)c1ccc(N(C)C)cc1 [TSA]
inhibition of HDAC activity (HDAC activity; [10]): 100%

N.N.[Cl][Pt][Cl] [cisplatin]
IC50 (IGROV-1 CR): 1.5 µM
IC50 (SKOV3 CR [9]): 10.4 µM
